From patent EP0432983A2 (priority 1989, dated 1991)
≈ marks a conversion by molar mass, not a printed value.

What was measured:
[1] = test system: P-388 (mouse DBA/2 lymphoid neoplasm); assay: General anti-tumour assay, P-388; format: cell-based
Protocol: (§1) With compounds AH-3, AH-4 and AH-5, four general anti-tumour assays and two cytotoxicity assays were performed. Current screening protocols were employed using test substance diluted as above and at varying concentrations. Tests were performed against the tumour cells P-388 (mouse DBA/2 lymphoid neoplasm), A-549 (human lung carcinoma), HT-29 (human colon carcinoma) and MCF-7 (human breast carcinoma) and for the cytotoxicity assays against CV-1 (monkey kidney fibroblast) and BHK (Hamster kidney fibroblast).
(§2) Scoring is performed as follows: (-) no activity - the number of cells is equal to the control of growth, 0-40% cell inhibition (+) low activity - numbers of cells are reduced by approx 50-60% (++) good activity - numbers of cells are reduced by approx 70-90% (+++) very good activity - there is 100% cell inhibition [(+) is the approximate IC₅₀]

[2] = test system: A-549 (human lung carcinoma); assay: General anti-tumour assay, A-549; format: cell-based
Protocol: as §1, §2

[3] = test system: HT-29 (human colon carcinoma); assay: General anti-tumour assay, HT-29; format: cell-based
Protocol: as §1, §2

[4] = test system: MCF-7 (human breast carcinoma); assay: General anti-tumour assay, MCF-7; format: cell-based
Protocol: as §1, §2

[5] = test system: CV-1 (monkey kidney fibroblast); assay: Cytotoxicity assay, CV-1; format: cell-based
Protocol: as §1, §2

[6] = test system: BHK (Hamster kidney fibroblast); assay: Cytotoxicity assay, BHK; format: cell-based
Protocol: as §1, §2

[7] = test system: HSV-1 (herpes simplex virus, type 1); assay: General anti-viral assay, HSV-1 in CV-1 cells (plaque reduction); format: cell-based; conditions: Human alphaherpesvirus 1; CV-1/ HSV-1; read-out: IC50 µg/ml approx
[8] = test system: VSV (Vesicular Stomatitis Virus); assay: microbe, parasite or virus in culture; format: cell-based; conditions: BHK, read-out: IC50 µg/ml approx

## CC(C)=CC1CC(C)C2CCC(C)c3c4c(c(C)c1c32)OCO4 (stereo not drawn) [AH-5, Helioporin E]
[1]; Mus musculus, P388, P-388, read-out: IC50 µg/ml approx
  IC50: 5 to 10 µg/mL (≈ 16 to 32 µM)
[1]; P-388, TEST CONC (µg) 0.2
  activity (cell inhibition): - ((-) no activity - the number of cells is equal to the control of growth, 0-40% cell inhibition)
[1]; P-388, TEST CONC (µg) 0.5
  activity (cell inhibition): - ((-) no activity - the number of cells is equal to the control of growth, 0-40% cell inhibition)
[1]; P-388, TEST CONC (µg) 1
  activity (cell inhibition): - ((-) no activity - the number of cells is equal to the control of growth, 0-40% cell inhibition)
[1]; P-388, TEST CONC (µg) 2
  activity (cell inhibition): - ((-) no activity - the number of cells is equal to the control of growth, 0-40% cell inhibition)
[1]; P-388, TEST CONC (µg) 5
  activity (cell inhibition): - ((-) no activity - the number of cells is equal to the control of growth, 0-40% cell inhibition)
[1]; P-388, TEST CONC (µg) 10
  activity (cell inhibition): ++ ((++) good activity - numbers of cells are reduced by approx 70-90%)
[1]; P-388, TEST CONC (µg) 20
  activity (cell inhibition): ++ ((++) good activity - numbers of cells are reduced by approx 70-90%)
[2]; A-549, TEST CONC (µg) 0.2
  activity (cell inhibition): - ((-) no activity - the number of cells is equal to the control of growth, 0-40% cell inhibition)
[2]; A-549, TEST CONC (µg) 0.5
  activity (cell inhibition): - ((-) no activity - the number of cells is equal to the control of growth, 0-40% cell inhibition)
[2]; A-549, TEST CONC (µg) 1
  activity (cell inhibition): - ((-) no activity - the number of cells is equal to the control of growth, 0-40% cell inhibition)
[2]; A-549, TEST CONC (µg) 2
  activity (cell inhibition): - ((-) no activity - the number of cells is equal to the control of growth, 0-40% cell inhibition)
[2]; A-549, TEST CONC (µg) 5
  activity (cell inhibition): - ((-) no activity - the number of cells is equal to the control of growth, 0-40% cell inhibition)
[2]; A-549, TEST CONC (µg) 10
  activity (cell inhibition): - ((-) no activity - the number of cells is equal to the control of growth, 0-40% cell inhibition)
[2]; A-549, TEST CONC (µg) 20
  activity (cell inhibition): - ((-) no activity - the number of cells is equal to the control of growth, 0-40% cell inhibition)
[2]; Homo sapiens, A549, A-549, read-out: IC50 µg/ml approx
  IC50: > 20 µg/mL
[3]; HT-29, TEST CONC (µg) 0.2
  activity (cell inhibition): - ((-) no activity - the number of cells is equal to the control of growth, 0-40% cell inhibition)
[3]; HT-29, TEST CONC (µg) 0.5
  activity (cell inhibition): - ((-) no activity - the number of cells is equal to the control of growth, 0-40% cell inhibition)
[3]; HT-29, TEST CONC (µg) 1
  activity (cell inhibition): - ((-) no activity - the number of cells is equal to the control of growth, 0-40% cell inhibition)
[3]; HT-29, TEST CONC (µg) 2
  activity (cell inhibition): - ((-) no activity - the number of cells is equal to the control of growth, 0-40% cell inhibition)
[3]; HT-29, TEST CONC (µg) 5
  activity (cell inhibition): + ((+) low activity - numbers of cells are reduced by approx 50-60%)
[3]; HT-29, TEST CONC (µg) 10
  activity (cell inhibition): ++ ((++) good activity - numbers of cells are reduced by approx 70-90%)
[3]; HT-29, TEST CONC (µg) 20
  activity (cell inhibition): +++ ((+++) very good activity - there is 100% cell inhibition)
[3]; Homo sapiens, HT-29, read-out: IC50 µg/ml approx
  IC50: ~5 µg/mL (≈ 16 µM)
[4]; Homo sapiens, MCF7, MCF-7, read-out: IC50 µg/ml approx
  IC50: ~10 µg/mL (≈ 32 µM)
[4]; MCF-7, TEST CONC (µg) 0.2
  activity (cell inhibition): - ((-) no activity - the number of cells is equal to the control of growth, 0-40% cell inhibition)
[4]; MCF-7, TEST CONC (µg) 0.5
  activity (cell inhibition): - ((-) no activity - the number of cells is equal to the control of growth, 0-40% cell inhibition)
[4]; MCF-7, TEST CONC (µg) 1
  activity (cell inhibition): - ((-) no activity - the number of cells is equal to the control of growth, 0-40% cell inhibition)
[4]; MCF-7, TEST CONC (µg) 2
  activity (cell inhibition): - ((-) no activity - the number of cells is equal to the control of growth, 0-40% cell inhibition)
[4]; MCF-7, TEST CONC (µg) 5
  activity (cell inhibition): - ((-) no activity - the number of cells is equal to the control of growth, 0-40% cell inhibition)
[4]; MCF-7, TEST CONC (µg) 10
  activity (cell inhibition): + ((+) low activity - numbers of cells are reduced by approx 50-60%)
[4]; MCF-7, TEST CONC (µg) 20
  activity (cell inhibition): +++ ((+++) very good activity - there is 100% cell inhibition)
[5]; CV-1, TEST CONC (µg) 0.2
  activity (cell inhibition): - ((-) no activity - the number of cells is equal to the control of growth, 0-40% cell inhibition)
[5]; CV-1, TEST CONC (µg) 0.5
  activity (cell inhibition): - ((-) no activity - the number of cells is equal to the control of growth, 0-40% cell inhibition)
[5]; CV-1, TEST CONC (µg) 1
  activity (cell inhibition): - ((-) no activity - the number of cells is equal to the control of growth, 0-40% cell inhibition)
[5]; CV-1, TEST CONC (µg) 2
  activity (cell inhibition): - ((-) no activity - the number of cells is equal to the control of growth, 0-40% cell inhibition)
[5]; CV-1, TEST CONC (µg) 5
  activity (cell inhibition): - ((-) no activity - the number of cells is equal to the control of growth, 0-40% cell inhibition)
[5]; CV-1, TEST CONC (µg) 10
  activity (cell inhibition): - ((-) no activity - the number of cells is equal to the control of growth, 0-40% cell inhibition)
[5]; CV-1, TEST CONC (µg) 20
  activity (cell inhibition): ++ ((++) good activity - numbers of cells are reduced by approx 70-90%)
[5]; Primates, CV-1, read-out: IC50 µg/ml approx
  IC50: 10 to 20 µg/mL (≈ 32 to 64 µM)
[6]; Mesocricetus auratus, read-out: IC50 µg/ml approx
  IC50: ~5 µg/mL (≈ 16 µM)
[6]; TEST CONC (µg) 0.2
  activity (cell inhibition): - ((-) no activity - the number of cells is equal to the control of growth, 0-40% cell inhibition)
[6]; TEST CONC (µg) 0.5
  activity (cell inhibition): - ((-) no activity - the number of cells is equal to the control of growth, 0-40% cell inhibition)
[6]; TEST CONC (µg) 1
  activity (cell inhibition): - ((-) no activity - the number of cells is equal to the control of growth, 0-40% cell inhibition)
[6]; TEST CONC (µg) 2
  activity (cell inhibition): - ((-) no activity - the number of cells is equal to the control of growth, 0-40% cell inhibition)
[6]; TEST CONC (µg) 5
  activity (cell inhibition): + ((+) low activity - numbers of cells are reduced by approx 50-60%)
[6]; TEST CONC (µg) 10
  activity (cell inhibition): +++ ((+++) very good activity - there is 100% cell inhibition)
[6]; TEST CONC (µg) 20
  activity (cell inhibition): +++ ((+++) very good activity - there is 100% cell inhibition)
[7]
  IC50: > 40 µg/mL
[8]
  IC50: > 40 µg/mL
BHK cells
  cytotoxicity (inhibition zone on the cell sheet): 0-
